This is an account of results in US10092568B2, “CBP/Catenin antagonists for enhancing asymmetric division of somatic stem cells” (University of Southern California, priority 2010, dated 2018).

Data set [1] concerns mitotic cells in the ventricular zone (VZ). Description: Par3 localization assay of symmetric versus asymmetric divisions in the ventricular zone of embryonic brain. The class given is in vivo, mouse. From the text:
Taking advantage of the ready uptake and penetration through the placental barrier of applicant's small molecule Wnt modulators, applicant designed a series of experiments to investigate symmetric versus asymmetric divisions in the ventricular zone (VZ) of the brain during mouse embryonic development. Timed pregnant mice were topically treated for various time periods (1-3 days) with DMSO (vehicle control), the CBP/catenin antagonist ICG-001 or the p300/catenin antagonist IQ-1. Using a previously described protocol (56), the localization of […] (Par3) and DNA was examined in mitotic cells in the VZ. Par3 distributes symmetrically in cells that divide symmetrically and asymmetrically in cells that divide asymmetrically, whereas the DNA distributes symmetrically between the 2 cells. Using fluorescence microscopy, the percentage of mitotic cells dividing symmetrically or asymmetrically could be quantified. […] Antagonizing the CBP/catenin interaction with ICG-001 had no apparent effect yielding similarly, approximately 21% asymmetric divisions. […] Importantly, this decrease in asymmetric divisions upon treatment with IQ-1 could be rescued back essentially to control levels (i.e. ˜21%) by treatment with a 2-fold excess of ICG-001. Even further divergence in symmetric versus asymmetric divisions could be seen upon prolonged treatments. For example, treatment with IQ-1 (i.e., antagonizing p300/catenin interaction leading to increased usage of CBP) for 3 days (E13.5-16.5) decreased asymmetric divisions compared to control from 31% to 7%. […] This reporter mouse expresses EGFP, driven by the Tis21 promoter, in cells that have undergone neurogenic differentiative divisions.
For example, Bultje et al. (Bultje R Neuron 63, 189-202, 2009) describe an assay to measure asymmetric distributions in the ventricular zone (vz) to evaluate asymmetric divisions during neurogenesis. Essentially this involves treating the animal (either adult or in utero) for a set period of time with compounds (either p.o., s.c., i.v. or topically) with compounds and then sacrificing the animal and examining the Par3 distribution (e.g., via immunohistochemistry) in mitotic cells vs. DNA distribution (e.g., using DAPI staining) Par3 distributes equally among the two daughter cells during symmetric division and unequally (essentially all in one daughter cell) during asymmetric differentiation.

For data set [2], the system named is MDA-MB-231 cells. Description: Stem cell markers in triple negative breast cancer cell line. Type of data set: cell-based. From the text: This phenotype CD44^hi, CD24^lo has been associated with a subpopulation of cells that behave like a breast cancer stem/tumor initiating cell population (51). […] Beyond reduction of survivin message level, there is a gene expression profile consistent with the occurrence of a mesenchymal to epithelial (MET) transition (i.e., decreased expression of twist, vimentin and S100A4 and an increase in E-cadherin expression). Recently, there have been a number of papers, which have correlated epithelial to mesenchymal transition (EMT) with a CSC phenotype (52). EMT is a normal physiologic process that is important in development and in adults, for example in wound healing, but pathophysiologically is associated with tumor metastasis and organ fibrosis (see later discussion on fibrosis). Specific CBP/catenin antagonists can reverse this aberrant EMT in vivo (EMT also plays a critical role in the skin in hair loss etc. J Dermatol Sci. 2011 Jan; 61(1):7-13. Epub 2010 Dec. 5; epithelial-mesenchymal transition (EMT) plays important roles not only in the morphogenesis but also in wound repair, tissue fibrosis and cancer progression. Recently, regulatory mechanism of this process has been elaborately elucidated. EMT can be a new therapeutic target for treating skin ulcer, fibrosing alopecia, and malignant cutaneous cancers, including squamous cell carcinoma and melanoma).

The target of data set [3] is p300 (Homo sapiens, UniProt Q09472). Description: Binding to coactivator p300. The text has this: ICG-001. Applicant's pharmacologic tools were identified using cell-based forward chemical genomic screens of small molecule secondary structure template chemical libraries (22).
Data set [4] concerns fibroblasts from IPF patients. Description: S100A4/FSP-1 expression in fibroblasts from IPF patients in vitro. Type of data set: cell-based. The text has this: Fibrosis. Idiopathic pulmonary fibrosis (IPF)/usual interstitial pneumonia (UIP), the most common of the idiopathic interstitial pneumonias, is a devastating, progressive disorder characterized by excessive fibroblast proliferation and extracellular matrix remodeling leading to lung destruction. There is currently no effective therapy for this uniformly fatal disease. An emerging paradigm proposes a central role for alveolar epithelial cell injury and dysregulated repair in the pathogenesis of IPF. Injury to the epithelium is thought to initiate a cascade of fibroblast activation and matrix deposition, which in predisposed hosts fails to resolve as it would in the course of normal wound repair. Epithelial cells undergo excessive apoptosis, whereas fibroblasts are less amenable to apoptosis and manifest increased survival. The well-characterized model of bleomycin-induced lung injury has been extensively used to investigate potential pathways involved in the pathogenesis of pulmonary fibrosis and to explore therapeutic approaches.

Data set [5] concerns imatinib resistant (IR) CML cells / leukemia stem cells. The data set can be described thus: Imatinib resistant CML, in vitro and NOD/SCID/IL2rγ−/− mouse model of engrafted human CML. The class given is in vivo. From the text: Chronic myelogenous leukemia (CML). Despite the stunning clinical success achieved to date in chronic phase CML patients treated with the BCR-ABL antagonist Gleevec/Imatinib (IM), responses in advanced phase patients are often short-lived, and patients invariably undergo disease progression. Furthermore, resistance to IM develops in 2% to 4% of patients annually and IM dose escalation is generally not sufficient to control the disease. Several mechanisms that contribute to tyrosine kinase inhibitor (TKI) resistance have been proposed including the insensitivity of quiescent CML stem cells to TKIs due to low expression of BCR-ABL and the emergence of drug resistant leukemic clones associated with increased nuclear catenin levels, a hallmark of increased Wnt/catenin transcription. […] Epigenetic silencing of negative regulators of the Wnt signaling cascade is also frequently associated with leukemias, including CML. […] The mice treated with one course (28 days from day 13-41 after leukemia engraftment) of CBP/catenin antagonist plus bcr-abl antagonist are essentially cured of leukemia and live as long (approximately 2 years) as their littermates that were never engrafted with leukemia.

The subject of data set [6] is bleomycin-induced pulmonary fibrosis. Description: Bleomycin-induced lung injury / pulmonary fibrosis. The class given is in vivo, mouse.
In data set [7] the test system is human anagen hair follicles. The note with it: cited from earlier work.

Sequence of p300 (Q09472 whole entry, species assumed): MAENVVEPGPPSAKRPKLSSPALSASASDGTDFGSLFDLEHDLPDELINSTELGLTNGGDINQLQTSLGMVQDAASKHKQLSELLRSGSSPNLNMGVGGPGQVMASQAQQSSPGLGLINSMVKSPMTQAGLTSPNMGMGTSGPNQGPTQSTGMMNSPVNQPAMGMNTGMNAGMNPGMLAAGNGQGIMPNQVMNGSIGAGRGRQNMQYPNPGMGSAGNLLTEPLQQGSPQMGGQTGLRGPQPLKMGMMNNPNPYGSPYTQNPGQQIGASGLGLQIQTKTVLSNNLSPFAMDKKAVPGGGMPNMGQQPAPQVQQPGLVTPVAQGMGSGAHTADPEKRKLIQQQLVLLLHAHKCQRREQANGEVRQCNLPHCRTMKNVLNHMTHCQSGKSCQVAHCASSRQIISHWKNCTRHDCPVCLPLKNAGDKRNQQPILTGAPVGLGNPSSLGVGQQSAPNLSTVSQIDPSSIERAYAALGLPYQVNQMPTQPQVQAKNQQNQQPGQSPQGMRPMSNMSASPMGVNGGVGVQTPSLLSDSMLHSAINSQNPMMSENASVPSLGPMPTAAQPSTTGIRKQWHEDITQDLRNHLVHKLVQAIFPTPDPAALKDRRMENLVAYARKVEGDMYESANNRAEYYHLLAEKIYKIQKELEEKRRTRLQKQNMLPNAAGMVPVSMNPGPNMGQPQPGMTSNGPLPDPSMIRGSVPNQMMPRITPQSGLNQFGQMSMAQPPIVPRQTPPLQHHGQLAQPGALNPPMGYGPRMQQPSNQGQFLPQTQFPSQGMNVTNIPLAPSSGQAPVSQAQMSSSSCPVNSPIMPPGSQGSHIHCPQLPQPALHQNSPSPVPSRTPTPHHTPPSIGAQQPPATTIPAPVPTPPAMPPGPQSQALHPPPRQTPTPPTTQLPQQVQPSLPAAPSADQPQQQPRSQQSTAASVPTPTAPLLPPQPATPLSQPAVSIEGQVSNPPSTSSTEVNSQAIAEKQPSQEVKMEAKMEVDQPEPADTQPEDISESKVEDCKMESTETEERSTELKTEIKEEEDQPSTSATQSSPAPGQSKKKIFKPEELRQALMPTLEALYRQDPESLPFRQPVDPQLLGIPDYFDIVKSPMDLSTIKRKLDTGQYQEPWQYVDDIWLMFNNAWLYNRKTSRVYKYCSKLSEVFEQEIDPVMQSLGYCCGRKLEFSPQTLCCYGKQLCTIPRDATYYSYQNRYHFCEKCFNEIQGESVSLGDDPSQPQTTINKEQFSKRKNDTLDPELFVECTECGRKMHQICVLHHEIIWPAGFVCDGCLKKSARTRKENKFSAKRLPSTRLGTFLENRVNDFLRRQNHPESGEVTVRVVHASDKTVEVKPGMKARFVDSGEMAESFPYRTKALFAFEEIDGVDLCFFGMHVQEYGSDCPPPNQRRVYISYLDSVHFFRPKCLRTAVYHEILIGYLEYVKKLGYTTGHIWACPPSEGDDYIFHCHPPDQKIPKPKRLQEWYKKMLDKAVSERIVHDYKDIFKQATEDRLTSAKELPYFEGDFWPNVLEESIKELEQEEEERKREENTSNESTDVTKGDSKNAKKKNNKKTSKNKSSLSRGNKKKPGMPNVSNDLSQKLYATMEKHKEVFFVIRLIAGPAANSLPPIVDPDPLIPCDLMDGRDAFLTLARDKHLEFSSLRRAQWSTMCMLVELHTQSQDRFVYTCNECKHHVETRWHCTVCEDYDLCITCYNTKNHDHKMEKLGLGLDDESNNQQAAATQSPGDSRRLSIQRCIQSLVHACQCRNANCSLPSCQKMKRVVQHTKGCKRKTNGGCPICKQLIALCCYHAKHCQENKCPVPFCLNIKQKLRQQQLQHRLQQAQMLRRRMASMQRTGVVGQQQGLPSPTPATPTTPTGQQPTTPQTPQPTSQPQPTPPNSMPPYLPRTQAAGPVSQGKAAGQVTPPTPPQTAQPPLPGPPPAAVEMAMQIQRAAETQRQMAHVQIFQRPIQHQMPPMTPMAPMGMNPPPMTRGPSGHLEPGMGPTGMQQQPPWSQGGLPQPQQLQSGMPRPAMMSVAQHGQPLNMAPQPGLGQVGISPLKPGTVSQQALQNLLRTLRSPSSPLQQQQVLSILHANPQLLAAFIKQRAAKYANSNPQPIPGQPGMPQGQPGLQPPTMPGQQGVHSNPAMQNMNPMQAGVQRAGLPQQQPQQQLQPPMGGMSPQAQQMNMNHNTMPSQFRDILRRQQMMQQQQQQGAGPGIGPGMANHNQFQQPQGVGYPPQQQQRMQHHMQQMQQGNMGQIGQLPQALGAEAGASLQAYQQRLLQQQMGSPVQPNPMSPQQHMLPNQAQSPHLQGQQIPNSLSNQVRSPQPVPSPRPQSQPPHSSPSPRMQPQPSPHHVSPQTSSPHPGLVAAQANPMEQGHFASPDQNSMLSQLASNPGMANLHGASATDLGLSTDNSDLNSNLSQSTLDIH

In the case of `O=C1[C@H](Cc2ccc(O)cc2)N2C(=O)CCN(C(=O)NCc3ccccc3)[C@H]2CN1Cc1cccc2ccccc12` [ICG-001], the “asymmetric divisions in the VZ after IQ-1, rescued” value in data set [1] (IQ-1 plus 2-fold excess of ICG-001) is “approximately 21%”. The “defect in asymmetric divisions caused by IQ-1” value in data set [1] (excess ICG-001) is “corrects the defect”. Also, the “number of asymmetric divisions compared to vehicle control” value in data set [1] (topical or oral administration to pregnant mice) is “does not affect”. Moreover, the “asymmetric divisions in the VZ” value in data set [1] (topical, 1 day, E13.5 to 14.5, DMSO approximately 21%) is “approximately 21%”. Besides, in data set [2], the ALDH activity result is “dramatically decreases” and the “side population (SP)” value is “dramatically decreases”. For the same compound, the “recruitment of p300 to the CD24 promoter” value in data set [2] (ChIP) is “increased recruitment”. Moreover, the CD44 expression result in data set [2] (MDA-MB-231) is reported as “decreasing”. Besides, the “expression of cell surface CD24” value in data set [2] (MDA-MB-231, 24h) is “significantly increased”. The “binding to p300” value in data set [3] was “not to its closely related homolog p300”. In addition, the “expression of S100A4/FSP-1” value in data set [4] is reported as “significantly decreased”. The “drug resistant leukemia stem cells” value in data set [5] (NOD/SCID/IL2rγ−/− mice engrafted with human CML) was “can be eliminated”. Further, the “differentiation of the IR cells” value in data set [5] (in vitro and in vivo) was “induces the differentiation”. For the same compound, in data set [5] (mouse, in vivo), the “effects on normal endogenous hematopoiesis” value is recorded as “without deleterious effects”. In data set [6] (BAT-gal transgenic mice, intranasal bleomycin), the “lacZ expression in airway and alveolar epithelium” value is on record as “significantly reduced”. In data set [6] (after bleomycin), the “expression of genes associated with fibrosis, ECM deposition and EMT” value was “essentially to the level of control”. Further, the “expression of S100A4/FSP-1” value in data set [6] (in vivo in the mouse) was “significantly decreased”. The established fibrosis result in data set [6] (mouse model) is reported as “could reverse established fibrosis”. For the same compound, the “severity of pulmonary fibrosis” value in data set [6] (pretreatment) is “significantly reduced the severity”. Besides, the hair fiber elongation entry in data set [7] (dose-dependent) was “significantly reduced”. In addition, in data set [7] (microdissected hair follicle), the survivin expression entry is on record as “decreased”.
